Measured values taken from ChEMBL document CHEMBL1131362, “Synthesis and anticholinesterase activity of huperzine A analogues containing phenol and catechol replacements for the pyridone ring” (Bioorg Med Chem Lett, 1998).
The source made the active and inactive calls. The rule behind the calls is not given here.

What was measured:
[1] = biological target: T1, Acetylcholinesterase (Bos taurus) (UniProt P23795); experiment: Compound was tested for acetylcholinesterase inhibitory activity at concentration uM; Inactive
T1 sequence (whole entry): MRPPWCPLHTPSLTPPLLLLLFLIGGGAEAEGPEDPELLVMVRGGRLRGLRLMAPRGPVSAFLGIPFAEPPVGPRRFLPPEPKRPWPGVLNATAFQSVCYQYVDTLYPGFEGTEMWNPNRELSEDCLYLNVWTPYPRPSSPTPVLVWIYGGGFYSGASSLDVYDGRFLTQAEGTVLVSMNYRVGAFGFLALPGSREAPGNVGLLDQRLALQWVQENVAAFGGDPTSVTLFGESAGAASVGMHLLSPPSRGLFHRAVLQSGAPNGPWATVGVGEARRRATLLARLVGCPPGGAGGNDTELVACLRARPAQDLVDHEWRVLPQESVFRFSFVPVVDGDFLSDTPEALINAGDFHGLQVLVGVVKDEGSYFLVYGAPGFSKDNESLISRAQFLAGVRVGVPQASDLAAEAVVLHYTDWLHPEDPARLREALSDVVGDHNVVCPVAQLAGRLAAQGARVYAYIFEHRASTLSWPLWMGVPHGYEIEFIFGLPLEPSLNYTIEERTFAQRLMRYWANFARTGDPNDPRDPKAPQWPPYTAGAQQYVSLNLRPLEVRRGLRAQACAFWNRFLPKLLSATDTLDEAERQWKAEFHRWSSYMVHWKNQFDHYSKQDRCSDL

[2] = biological target: T1, Acetylcholinesterase (Bos taurus); experiment: Compound was tested for acetylcholinesterase inhibition at concentration uM; No Inhibition

Row | Compound | inhibition [1] | inhibition [2]
1 | C/C=C1\C2C=C(C)C[C@]1(N)c1ccc(O)cc1C2 | inactive | 
2 | C/C=C1\C2C=C(C)C[C@]1(N)c1ccc(O)c(O)c1C2 |  | inactive
